According to US8211935B2, “Heterocyclic derivatives for modulation of calcium channels” (Vertex Pharmaceuticals Incorporated, priority 2004, dated 2012):
Like-named read-outs stand apart in the source and are kept apart here.

Target: T1, CaV2.2 (Homo sapiens, UniProt Q00975)
T1 construct: expressed in transfected cells; host or cells: HEK293
Experiment: VIPR optical membrane potential assay with electrical stimulation
Type: cell-based
In short: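 HEK293 cells stably expressing CaV2.2, stained with CC2-DMPE (10 μM final) and oxonol voltage-sensitive dyes, compound added with BaCl2. Membrane potential response evoked by 3-5 s electrical stimulation. Read as background-subtracted 460/580 nm emission ratio, response R=Rf/Ri, normalized to mibefradil positive and no-drug negative controls.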

[1] = Table 3, biological assay data, read-out: IC50

T1 sequence (Q00975 whole entry): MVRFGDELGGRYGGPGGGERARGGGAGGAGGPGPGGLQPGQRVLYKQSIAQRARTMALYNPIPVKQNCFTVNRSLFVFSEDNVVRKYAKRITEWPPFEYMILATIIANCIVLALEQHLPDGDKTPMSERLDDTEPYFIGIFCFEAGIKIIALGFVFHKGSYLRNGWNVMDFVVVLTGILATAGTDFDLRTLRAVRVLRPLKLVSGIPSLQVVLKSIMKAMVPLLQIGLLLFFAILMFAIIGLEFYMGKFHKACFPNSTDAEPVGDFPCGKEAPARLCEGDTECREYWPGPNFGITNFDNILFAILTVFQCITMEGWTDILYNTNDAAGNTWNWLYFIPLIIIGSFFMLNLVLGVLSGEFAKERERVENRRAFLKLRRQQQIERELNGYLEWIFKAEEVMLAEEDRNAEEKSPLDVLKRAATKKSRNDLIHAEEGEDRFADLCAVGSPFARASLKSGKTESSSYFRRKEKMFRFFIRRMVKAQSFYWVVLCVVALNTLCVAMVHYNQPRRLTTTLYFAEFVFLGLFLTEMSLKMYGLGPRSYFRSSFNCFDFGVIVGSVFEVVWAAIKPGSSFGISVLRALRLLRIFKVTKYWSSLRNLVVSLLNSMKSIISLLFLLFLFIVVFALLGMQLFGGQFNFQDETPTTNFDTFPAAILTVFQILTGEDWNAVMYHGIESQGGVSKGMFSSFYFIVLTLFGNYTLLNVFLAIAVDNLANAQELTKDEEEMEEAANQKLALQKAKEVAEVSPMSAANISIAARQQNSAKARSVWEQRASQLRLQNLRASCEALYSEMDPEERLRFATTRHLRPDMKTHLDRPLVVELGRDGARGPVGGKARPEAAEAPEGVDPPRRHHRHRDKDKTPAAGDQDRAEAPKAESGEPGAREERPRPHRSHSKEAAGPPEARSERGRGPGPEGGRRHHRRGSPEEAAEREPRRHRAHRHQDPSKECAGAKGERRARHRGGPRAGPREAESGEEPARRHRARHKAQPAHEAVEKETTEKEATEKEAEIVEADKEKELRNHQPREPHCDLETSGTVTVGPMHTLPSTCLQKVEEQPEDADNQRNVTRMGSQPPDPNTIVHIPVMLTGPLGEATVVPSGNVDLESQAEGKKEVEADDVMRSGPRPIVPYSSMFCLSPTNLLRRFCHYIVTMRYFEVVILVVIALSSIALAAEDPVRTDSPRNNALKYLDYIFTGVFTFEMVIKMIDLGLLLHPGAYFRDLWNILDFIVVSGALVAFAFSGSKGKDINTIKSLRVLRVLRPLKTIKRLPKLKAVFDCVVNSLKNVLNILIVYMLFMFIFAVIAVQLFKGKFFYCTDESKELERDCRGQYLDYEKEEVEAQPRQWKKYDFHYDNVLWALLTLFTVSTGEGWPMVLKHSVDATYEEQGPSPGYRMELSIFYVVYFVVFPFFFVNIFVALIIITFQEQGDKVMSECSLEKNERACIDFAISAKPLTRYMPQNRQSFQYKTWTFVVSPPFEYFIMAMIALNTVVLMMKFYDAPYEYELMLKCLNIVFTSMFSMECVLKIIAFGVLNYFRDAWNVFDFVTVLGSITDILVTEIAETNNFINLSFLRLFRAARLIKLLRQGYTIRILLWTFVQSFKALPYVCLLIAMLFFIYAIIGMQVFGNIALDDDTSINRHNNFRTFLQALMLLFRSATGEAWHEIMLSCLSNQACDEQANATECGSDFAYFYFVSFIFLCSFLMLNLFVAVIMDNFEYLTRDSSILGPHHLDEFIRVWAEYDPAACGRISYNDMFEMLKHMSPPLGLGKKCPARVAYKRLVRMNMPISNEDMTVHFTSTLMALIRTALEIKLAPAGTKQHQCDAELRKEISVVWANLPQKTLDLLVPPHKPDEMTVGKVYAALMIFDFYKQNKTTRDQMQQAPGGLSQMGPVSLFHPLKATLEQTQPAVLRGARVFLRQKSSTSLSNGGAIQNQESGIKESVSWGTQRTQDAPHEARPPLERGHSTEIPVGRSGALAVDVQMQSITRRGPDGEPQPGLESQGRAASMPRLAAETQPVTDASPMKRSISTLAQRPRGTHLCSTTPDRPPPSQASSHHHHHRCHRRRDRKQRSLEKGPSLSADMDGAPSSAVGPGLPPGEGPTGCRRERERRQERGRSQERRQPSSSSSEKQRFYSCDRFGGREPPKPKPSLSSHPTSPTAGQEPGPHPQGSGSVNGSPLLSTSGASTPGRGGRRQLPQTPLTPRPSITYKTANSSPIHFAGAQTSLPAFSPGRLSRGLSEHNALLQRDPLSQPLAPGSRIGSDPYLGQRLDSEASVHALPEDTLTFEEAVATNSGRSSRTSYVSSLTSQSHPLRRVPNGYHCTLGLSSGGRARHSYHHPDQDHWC
T1 sequence (P54284 whole entry partner): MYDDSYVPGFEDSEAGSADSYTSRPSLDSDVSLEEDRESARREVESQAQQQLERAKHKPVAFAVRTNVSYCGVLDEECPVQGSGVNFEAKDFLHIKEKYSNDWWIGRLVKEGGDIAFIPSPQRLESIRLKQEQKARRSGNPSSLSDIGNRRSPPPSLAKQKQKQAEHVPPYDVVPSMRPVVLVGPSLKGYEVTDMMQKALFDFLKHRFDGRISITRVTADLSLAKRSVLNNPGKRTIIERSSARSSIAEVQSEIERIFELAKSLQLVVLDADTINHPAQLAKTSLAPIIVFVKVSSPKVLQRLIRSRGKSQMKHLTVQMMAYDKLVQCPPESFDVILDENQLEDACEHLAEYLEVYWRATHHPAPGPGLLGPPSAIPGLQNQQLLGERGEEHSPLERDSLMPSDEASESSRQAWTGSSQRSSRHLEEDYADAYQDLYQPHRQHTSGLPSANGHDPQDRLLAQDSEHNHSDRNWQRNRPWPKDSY
T1 sequence (P54289 25-946 partner limits assumed): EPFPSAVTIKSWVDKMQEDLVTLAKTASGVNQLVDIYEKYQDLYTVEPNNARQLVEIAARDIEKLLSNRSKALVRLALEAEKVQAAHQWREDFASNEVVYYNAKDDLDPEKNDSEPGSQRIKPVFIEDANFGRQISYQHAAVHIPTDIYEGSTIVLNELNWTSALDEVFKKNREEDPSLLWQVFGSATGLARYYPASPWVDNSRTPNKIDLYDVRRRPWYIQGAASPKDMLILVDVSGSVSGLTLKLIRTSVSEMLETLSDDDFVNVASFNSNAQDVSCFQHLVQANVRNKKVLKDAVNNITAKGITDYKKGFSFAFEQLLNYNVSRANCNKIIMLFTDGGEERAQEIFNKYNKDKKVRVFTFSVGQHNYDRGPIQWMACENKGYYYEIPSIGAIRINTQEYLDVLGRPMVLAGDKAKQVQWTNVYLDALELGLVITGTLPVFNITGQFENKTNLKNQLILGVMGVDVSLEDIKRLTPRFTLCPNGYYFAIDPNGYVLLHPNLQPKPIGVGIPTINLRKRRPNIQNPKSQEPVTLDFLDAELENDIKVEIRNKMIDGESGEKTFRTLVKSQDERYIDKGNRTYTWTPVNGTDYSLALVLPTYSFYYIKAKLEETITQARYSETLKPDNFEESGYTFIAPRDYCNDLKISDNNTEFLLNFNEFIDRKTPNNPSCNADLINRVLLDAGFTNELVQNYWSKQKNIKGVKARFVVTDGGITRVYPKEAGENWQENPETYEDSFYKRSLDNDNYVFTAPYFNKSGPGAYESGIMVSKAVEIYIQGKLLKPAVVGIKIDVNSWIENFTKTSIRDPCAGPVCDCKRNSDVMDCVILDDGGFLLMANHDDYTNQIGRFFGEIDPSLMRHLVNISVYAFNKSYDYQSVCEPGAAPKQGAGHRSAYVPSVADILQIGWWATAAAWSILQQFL
T1 sequence (P54289 947-1103 partner limits assumed): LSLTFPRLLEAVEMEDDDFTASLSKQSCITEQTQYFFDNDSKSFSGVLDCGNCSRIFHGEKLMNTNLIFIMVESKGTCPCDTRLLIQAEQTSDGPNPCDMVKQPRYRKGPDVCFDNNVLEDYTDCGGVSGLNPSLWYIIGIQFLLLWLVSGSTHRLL

SMILES | IC50 [1] | IC50
Cc1c(C(=O)N2CCCCCC2)oc2ccc(S(=O)(=O)N3CCC(C)CC3)cc12 [compound 347] | 5 to 20 µM | –
CC1CCN(S(=O)(=O)c2ccc3[nH]c(C(=O)N4CCCCCC4)cc3c2)CC1 [compound 348] | 5 to 20 µM | –
CC1CC(C)CN(S(=O)(=O)c2ccc3c(c2)cc(C(=O)NC2CC2)n3S(=O)(=O)c2ccccc2)C1 (stereo not drawn) [compound 349] | < 5 µM | –
Cc1c(C(=O)N2CCC3(CC2)OCCO3)[nH]c2ccc(S(=O)(=O)N3CCC(C)CC3)cc12 [compound 351] | – | 5 to 20 µM
Cc1c(C(=O)NCC2CCCO2)oc2ccc(S(=O)(=O)N3CCCCC3)cc12 (stereo not drawn) [compound 352] | 5 to 20 µM | –
Cc1c(C(=O)N(C)C)oc2ccc(S(=O)(=O)N3CCC(C)CC3)cc12 [compound 353] | 5 to 20 µM | –
O=C(c1cc2cc(S(=O)(=O)N3CCCCCC3)ccc2[nH]1)N1CCCCC1 [compound 354] | 5 to 20 µM | –
Cc1c(C(=O)NCC2CCCO2)[nH]c2ccc(S(=O)(=O)N3CCC(C)CC3)cc12 (stereo not drawn) [compound 355] | 5 to 20 µM | –
CCN(CC)S(=O)(=O)c1ccc2oc(C(=O)N3CCC4(CC3)OCCO4)c(C)c2c1 [compound 356] | – | < 20 µM
CC1CC(C)CN(S(=O)(=O)c2ccc3[nH]c(C(=O)NCc4ccccc4)cc3c2)C1 (stereo not drawn) [compound 357] | < 5 µM | –
O=C(c1cc2cc(S(=O)(=O)N3CCCCCC3)ccc2[nH]1)N1CCCCCC1 [compound 358] | 5 to 20 µM | –
Cc1c(C(=O)N2CCOCC2)oc2ccc(S(=O)(=O)N3CCC(C)CC3)cc12 [compound 359] | 5 to 20 µM | –
Cc1c(C(=O)N(C)Cc2ccccc2)oc2ccc(S(=O)(=O)N3CCOCC3)cc12 [compound 360] | 5 to 20 µM | –
Cc1c(C(=O)NC2CCCC2)oc2ccc(S(=O)(=O)N3CCOCC3)cc12 [compound 361] | < 20 µM | –
Cc1c(C(=O)N2CCCCCC2)[nH]c2ccc(S(=O)(=O)N3CC(C)CC(C)C3)cc12 (stereo not drawn) [compound 362] | < 5 µM | –
O=C(NCC1CCOCC1)c1cc2cc(S(=O)(=O)N3CCCCCC3)ccc2o1 [compound 363] | 5 to 20 µM | –
CC1CCN(C(=O)c2cc3cc(S(=O)(=O)N4CCCCCC4)ccc3[nH]2)CC1 [compound 364] | 5 to 20 µM | –
CNC(=O)c1oc2ccc(S(=O)(=O)N3CCCC(C)C3)cc2c1C (stereo not drawn) [compound 365] | 5 to 20 µM | –
CC1CC(C)CN(S(=O)(=O)c2ccc3[nH]c(C(=O)NC4CCCC4)cc3c2)C1 (stereo not drawn) [compound 366] | < 5 µM | –
CCN(CC)S(=O)(=O)c1ccc2oc(C(=O)N3CCCCC3)c(C)c2c1 [compound 367] | < 20 µM | –
CC1CCN(S(=O)(=O)c2ccc3[nH]c(C(=O)N4CCCCC4)cc3c2)CC1 [compound 368] | < 5 µM | –
CCCCN(C)C(=O)c1oc2ccc(S(=O)(=O)N3CCCC(C)C3)cc2c1C (stereo not drawn) [compound 369] | < 5 µM | –
CCN(CC)S(=O)(=O)c1ccc2oc(C(=O)NC3CCCCC3)c(C)c2c1 [compound 370] | 5 to 20 µM | –
Cc1c(C(=O)NC2CCCCC2)oc2ccc(S(=O)(=O)N3CCC4(CC3)OCCO4)cc12 [compound 371] | 5 to 20 µM | –
Cc1c(C(=O)N2CCOCC2)oc2ccc(S(=O)(=O)N3CCCCC3)cc12 [compound 372] | < 20 µM | –
Cc1c(C(=O)N(C)Cc2ccccc2)[nH]c2ccc(S(=O)(=O)N3CC(C)CC(C)C3)cc12 (stereo not drawn) [compound 373] | < 5 µM | –

SMILES | IC50 [1] | IC50
CCN(CC)C(=O)c1cc2cc(S(=O)(=O)N3CC(C)CC(C)C3)ccc2n1CCCN1CCN(C)CC1 (stereo not drawn) [compound 374] | < 5 µM | –
COc1ccccc1CNC(=O)c1oc2ccc(S(=O)(=O)N3CCCC3)cc2c1C [compound 375] | 5 to 20 µM | –
Cc1c(C(=O)N2CCC(C)CC2)oc2ccc(S(=O)(=O)N3CCCC(C)C3)cc12 (stereo not drawn) [compound 376] | < 5 µM | –
CCCCN(C)C(=O)c1cc2cc(S(=O)(=O)N3CC(C)CC(C)C3)ccc2[nH]1 (stereo not drawn) [compound 377] | < 5 µM | –
Cc1c(C(=O)N2CCCC(C)C2)oc2ccc(S(=O)(=O)N3CC(C)CC(C)C3)cc12 (stereo not drawn) [compound 378] | < 5 µM | –
Cc1c(C(=O)N2CCCCC2C)[nH]c2ccc(S(=O)(=O)N3CCCCCC3)cc12 (stereo not drawn) [compound 379] | 5 to 20 µM | –
CC1CCN(S(=O)(=O)c2ccc3cc(C(=O)N(C)C)[nH]c3c2)CC1 [compound 380] | < 20 µM | –
Cc1c(C(=O)NCCc2ccccc2)[nH]c2ccc(S(=O)(=O)N3CCC(C)CC3)cc12 [compound 381] | < 5 µM | –
O=C(NCc1ccccc1)c1cc2cc(S(=O)(=O)N3CCCCCC3)ccc2[nH]1 [compound 382] | < 5 µM | –
Cc1c(C(=O)NCC2CCOCC2)oc2ccc(S(=O)(=O)N3CCCC(C)C3)cc12 (stereo not drawn) [compound 383] | 5 to 20 µM | –
CCNC(=O)c1cc2cc(S(=O)(=O)N3CC(C)CC(C)C3)ccc2[nH]1 (stereo not drawn) [compound 384] | < 5 µM | –
Cc1c(C(=O)N2CCN(C)CC2)oc2ccc(S(=O)(=O)N3CCC(C)CC3)cc12 [compound 385] | 5 to 20 µM | –
O=C(NCC1CCCO1)c1cc2cc(S(=O)(=O)N3CCCCCC3)ccc2[nH]1 (stereo not drawn) [compound 386] | < 5 µM | –
CCCS(=O)(=O)n1c(C(=O)N2CCCCC2)cc2cc(S(=O)(=O)N3CC(C)CC(C)C3)ccc21 (stereo not drawn) [compound 387] | < 5 µM | –
CCN(CC)S(=O)(=O)c1ccc2oc(C(=O)N3CCCC(C)C3)c(C)c2c1 (stereo not drawn) [compound 388] | 5 to 20 µM | –
CC1CC(C)CN(S(=O)(=O)c2ccc3[nH]c(C(=O)N4CCCCC4)cc3c2)C1 (stereo not drawn) [compound 389] | < 5 µM | –
Cc1c(C(=O)NC2CCCC2)[nH]c2ccc(S(=O)(=O)N3CC(C)CC(C)C3)cc12 (stereo not drawn) [compound 390] | < 5 µM | –
CC1CC(C)CN(S(=O)(=O)c2ccc3c(c2)cc(C(=O)N2CCCCC2)n3C)C1 (stereo not drawn) [compound 391] | < 5 µM | –
CC1CCCCN1C(=O)c1cc2cc(S(=O)(=O)N3CCCCCC3)ccc2o1 (stereo not drawn) [compound 392] | 5 to 20 µM | –
Cc1c(C(=O)NCCc2ccccc2)oc2ccc(S(=O)(=O)N3CC(C)CC(C)C3)cc12 (stereo not drawn) [compound 393] | < 5 µM | –
Cc1ccc(CNS(=O)(=O)c2ccc3oc(C(=O)NC4CC4)c(C)c3c2)cc1 [compound 394] | < 20 µM | –
Cc1c(C(=O)NC2CC2)oc2ccc(S(=O)(=O)N3CCC(C)CC3)cc12 [compound 395] | 5 to 20 µM | –
Cc1c(C(=O)N(CCN(C)C)Cc2ccccc2)oc2ccc(S(=O)(=O)N3CCC(C)CC3)cc12 [compound 396] | < 5 µM | –
Cc1c(C(=O)NCc2ccccc2)oc2ccc(S(=O)(=O)N3CCCC(C)C3)cc12 (stereo not drawn) [compound 397] | 5 to 20 µM | –
O=C(NCc1ccccc1)c1cc2cc(S(=O)(=O)N3CCCCCC3)ccc2n1S(=O)(=O)c1ccccc1 [compound 398] | < 5 µM | –
CCN(CC)S(=O)(=O)c1ccc2oc(C(=O)NC(C)C)c(C)c2c1 [compound 399] | < 20 µM | –

SMILES | IC50 [1] | IC50
CC(C)NC(=O)c1cc2cc(S(=O)(=O)N3CCCCCC3)ccc2[nH]1 [compound 400] | < 20 µM | –
Cc1c(C(=O)NCCCc2ccccc2)oc2ccc(S(=O)(=O)N3CCCC(C)C3)cc12 (stereo not drawn) [compound 401] | < 5 µM | –
Cc1c(C(=O)N2CCCC2)oc2ccc(S(=O)(=O)N3CCCCCC3)cc12 [compound 402] | < 20 µM | –
CCOC(=O)N1CCN(C(=O)c2oc3ccc(S(=O)(=O)N4CCCC(C)C4)cc3c2C)CC1 (stereo not drawn) [compound 403] | < 5 µM | –
Cc1c(C(=O)N2CCN(C)CC2)oc2ccc(S(=O)(=O)N3CCCC(C)C3)cc12 (stereo not drawn) [compound 404] | 5 to 20 µM | –
CC1CC(C)CN(S(=O)(=O)c2ccc3[nH]c(C(=O)NCCC4CCOCC4)cc3c2)C1 (stereo not drawn) [compound 405] | < 5 µM | –
CC1CCCN(C(=O)c2cc3cc(S(=O)(=O)N4CC(C)CC(C)C4)ccc3o2)C1 (stereo not drawn) [compound 406] | < 5 µM | –
CC1CCN(S(=O)(=O)c2ccc3[nH]c(C(=O)NCC4CCCO4)cc3c2)CC1 (stereo not drawn) [compound 407] | < 5 µM | –
CC1CC(C)CN(S(=O)(=O)c2ccc3oc(C(=O)NCC4CCCO4)cc3c2)C1 (stereo not drawn) [compound 408] | < 5 µM | –
Cc1c(C(=O)N2CCCCCC2)oc2ccc(S(=O)(=O)N3CCCC(C)C3)cc12 (stereo not drawn) [compound 409] | < 5 µM | –
CCOC(=O)N1CCN(C(=O)c2cc3cc(S(=O)(=O)N4CCCCCC4)ccc3o2)CC1 [compound 410] | 5 to 20 µM | –
Cc1c(C(=O)NC(C)C)oc2ccc(S(=O)(=O)N3CCC(C)CC3)cc12 [compound 411] | < 5 µM | –
CC1CCN(S(=O)(=O)c2ccc3[nH]c(C(=O)NC4CCCC4)cc3c2)CC1 [compound 412] | < 5 µM | –
Cc1c(C(=O)N2CCCC(C)C2)oc2ccc(S(=O)(=O)N3CCCC(C)C3)cc12 (stereo not drawn) [compound 413] | < 5 µM | –
Cc1c(C(=O)N2CCCC2)oc2ccc(S(=O)(=O)N3CC(C)CC(C)C3)cc12 (stereo not drawn) [compound 414] | < 5 µM | –
CCOC(=O)N1CCN(C(=O)c2cc3cc(S(=O)(=O)N4CC(C)CC(C)C4)ccc3[nH]2)CC1 (stereo not drawn) [compound 415] | < 5 µM | –
CN(Cc1ccccc1)C(=O)c1cc2cc(S(=O)(=O)N3CCCCCC3)ccc2[nH]1 [compound 416] | < 5 µM | –
CC1CCN(S(=O)(=O)c2ccc3oc(C(=O)N4CCCC(C)C4)cc3c2)CC1 (stereo not drawn) [compound 417] | 5 to 20 µM | –
O=C(NCC1CCOCC1)c1cc2cc(S(=O)(=O)N3CCCCCC3)ccc2[nH]1 [compound 418] | < 5 µM | –
CC1CC(C)CN(S(=O)(=O)c2ccc3c(c2)cc(C(=O)N2CCN(C)CC2)n3S(=O)(=O)c2ccccc2)C1 (stereo not drawn) [compound 419] | 5 to 20 µM | –
CCCCN(C)C(=O)c1[nH]c2ccc(S(=O)(=O)N3CC(C)CC(C)C3)cc2c1C (stereo not drawn) [compound 420] | < 5 µM | –
O=C(NC1CC1)c1cc2cc(S(=O)(=O)N3CCCCCC3)ccc2n1S(=O)(=O)c1ccccc1 [compound 421] | < 5 µM | –
CCCCN(C)C(=O)c1cc2cc(S(=O)(=O)N3CCCCCC3)ccc2[nH]1 [compound 422] | < 5 µM | –
CCN(CC)C(=O)c1oc2ccc(S(=O)(=O)N3CC(C)CC(C)C3)cc2c1C (stereo not drawn) [compound 423] | < 5 µM | –
Cc1c(C(=O)NC2CCCCC2)[nH]c2ccc(S(=O)(=O)N3CCC(C)CC3)cc12 [compound 424] | 5 to 20 µM | –
CC1CC(C)CN(C(=O)c2cc3cc(S(=O)(=O)N4CC(C)CC(C)C4)ccc3[nH]2)C1 (stereo not drawn) [compound 425] | < 5 µM | –
